Source: US9511134B2, “Inducing immune responses to influenza virus using polypeptide and nucleic acid compositions” (priority 2006, dated 2016)
Several values for one entry are separate records, joined by “and”; a condition that tells them apart may be missing. Equal values may be shown once. Read-outs that look alike come from different tables or passages of the source.

Legend:
[1] = biological target: DRB1*0701 (Homo sapiens, UniProt P01903+P01911, A100R/A102G/A103Q/D57E/D86V/E43K/F76Y/K127E/L162R/M171V/P40G/Q125H/Q99D/R33Q/R42Y/R54Q/S133A/S66F/T210M/V115G/Y107V/Y59L/Y89S); experiment: biochemical; type: binding
[2] = biological target: T1, DRB4*0101 (Homo sapiens, UniProt P01903+P13762, G164S); experiment: biochemical; type: binding; conditions: IC50 nM to purified HLA DRB4*0101
T1 construct: made in house; host or cells: EBV-transformed homozygous human B cell lines, transfected fibroblasts or single-allele 721.221 transfectants

[3] = biological target: DRB1*0405 (Homo sapiens, UniProt P01903+P01911, A100R/A169T/D86S/F76Y/I96L/K127E/L162R/M171V/N62H/P40V/Q125Y/R42H/S133A/S149N/S66Y/V115G/V209L/W38E); experiment: biochemical; type: binding; conditions: read-out: IC50 nM to purified HLA DRB1*0405
[4] = biological target: DRB1*0802 (Homo sapiens, UniProt P01903+P01911, A100R/A103L/A169T/F76Y/H45Y/I96F/K41T/L162R/M171V/P40S/Q125H/Q178H/Q39Y/Q99D/R218S/R42G/S66Y/V115G/W38E); experiment: biochemical; type: binding
[5] = biological target: DRB1*0404 (Homo sapiens, UniProt P01903+P01911, A100R/A169T/F76Y/I96L/K127E/L162R/M171V/N62H/P40V/Q125Y/R42H/S133A/S149N/S66Y/V209L/W38E); experiment: biochemical; type: binding
[6] = biological target: T2, DRB1*1501 (Homo sapiens, UniProt P01903+P01911); experiment: biochemical; type: binding; conditions: read-out: IC50 nM to purified HLA DRB1*1501
T2 construct: made in house; host or cells: EBV-transformed homozygous human B cell lines, transfected fibroblasts or single-allele 721.221 transfectants

[7] = biological target: T3, DRB5*0101 (Homo sapiens, UniProt P01903+Q30154); experiment: biochemical; type: binding
T3 construct: made in house; host or cells: EBV-transformed homozygous human B cell lines, transfected fibroblasts or single-allele 721.221 transfectants

[8] = biological target: T4, DRB1*0101 (Homo sapiens, UniProt P01903+P01911, A100R/D57E/F55L/F60I/F76Y/I96L/L162R/M171V/P40L/Q125E/R42F/V115G/Y59C); experiment: biochemical; type: binding
T4 construct: made in house; host or cells: EBV-transformed homozygous human B cell lines, transfected fibroblasts or single-allele 721.221 transfectants

[9] = biological target: DRB1*1101 (Homo sapiens, UniProt P01903+P01911, A100R/A169T/A87E/I96F/K41T/L162R/M171V/P40S/Q125H/Q178H/Q39Y/Q99D/R42S/S66Y/T262R/V115G/W38E); experiment: biochemical; type: binding; conditions: read-out: IC50 nM to purified HLA DRB1*1101
[10] = biological target: DRB1*1302 (Homo sapiens, UniProt P01903+P01911, A100E/A169T/K41T/L162R/M171V/P40S/Q125H/Q178H/Q39Y/Q99D/R42S/S66N/T262R/V115G/W38E/Y61H); experiment: biochemical; type: binding; conditions: read-out: IC50 nM to purified HLA DRB1*1302
[11] = biological target: T5, DRB1*0401 (Homo sapiens, UniProt P01903+P01911, A100K/A169T/F76Y/I96L/K127E/L162R/M171V/N62H/P40V/Q125Y/R42H/S133A/S149N/S66Y/V115G/V209L/W38E); experiment: biochemical; type: binding; conditions: read-out: IC50 nM to purified HLA DRB1*0401
T5 construct: made in house; host or cells: EBV-transformed homozygous human B cell lines, transfected fibroblasts or single-allele 721.221 transfectants

[12] = system: CD4+ PBMC; type: cell-based, human; conditions: IFNγ ELISPOT, PBMC rested five days, CD8-depleted
[13] = biological target: T6, DRB1*0301 (Homo sapiens, UniProt P01903+P01911, A100K/A102G/A103R/A169T/F55Y/I96L/K41T/L162R/M171V/P40S/Q125H/Q178H/Q39Y/R42S/S66N/T106N/T262R/W38E/Y61H); experiment: biochemical; type: binding
T6 construct: made in house; host or cells: EBV-transformed homozygous human B cell lines, transfected fibroblasts or single-allele 721.221 transfectants

[14] = IC50 nM to purified HLA DRB1*0404
[15] = IC50 nM to purified HLA DRB1*0101
[16] = IC50 nM to purified HLA DRB1*0101, Table 4

Sequence of DRB1*1302 (P01903 26-254 limits assumed, other chains not shown): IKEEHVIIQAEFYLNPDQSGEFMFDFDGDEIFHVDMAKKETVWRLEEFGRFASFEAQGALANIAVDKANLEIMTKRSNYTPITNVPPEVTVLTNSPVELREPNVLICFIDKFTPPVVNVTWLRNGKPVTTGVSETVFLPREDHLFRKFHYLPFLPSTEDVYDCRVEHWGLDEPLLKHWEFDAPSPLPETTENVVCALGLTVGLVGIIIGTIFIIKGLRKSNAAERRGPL
T6 sequence (P01903 26-254, other chains not shown): as the sequence (P01903 26-254 limits assumed, other chains not shown) above
Sequence of DRB1*1101 (P01903 26-254 limits assumed, other chains not shown): as above

Row | SMILES | IC50 [1] [nM] | IC50 [2] [nM] | IC50 [3] [nM] | IC50 [4] [nM] | IC50 [5, 14] [nM] | IC50 [6] | IC50 [7] [nM] | IC50 [8, 15] | IC50 [9] [nM] | IC50 [10] [nM] | IC50 [11] | IC50 [13] [nM] | other results
1 | CC[C@H](C)[C@H](NC(=O)[C@H](CC(C)C)NC(=O)[C@H](Cc1ccccc1)NC(=O)CNC(=O)[C@H](CCCNC(=N)N)NC(=O)[C@H](CC(C)C)NC(=O)[C@@H](NC(=O)[C@H](C)NC(=O)[C@H](CO)NC(=O)[C@@H](N)CCC(=O)O)C(C)C)C(=O)N[C@@H](CC(C)C)C(=O)NCC(=O)N[C@@H](CCCCN)C(=O)N[C@@H](CCC(=O)O)C(=O)N[C@@H](CC(=O)O)C(=O)O [Flu.PB2.690] | 2470 | 1280 | 7100 | 803 | 110 | 39 nM | 303 | 8.4 nM | – | – | – | – | –
2 | CC[C@H](C)[C@H](NC(=O)[C@@H](NC(=O)[C@H](CCCNC(=N)N)NC(=O)[C@H](CCC(N)=O)NC(=O)[C@@H](NC(=O)[C@@H](NC(=O)[C@H](CCSC)NC(=O)[C@H](CCCCN)NC(=O)[C@H](CCCCN)NC(=O)[C@@H](N)[C@@H](C)O)C(C)C)[C@@H](C)O)[C@@H](C)O)C(=O)NCC(=O)N[C@@H](CCCCN)C(=O)N[C@@H](CCCCN)C(=O)N[C@@H](CCCCN)C(=O)N[C@@H](CCC(N)=O)C(=O)O [Flu.PB1.199] | 14100 | 57 | – | 55 | 62 | 9710 nM | 4.1 | – | 449 | 6120 | 71 nM | – | –
3 | CC[C@H](C)[C@H](N)C(=O)NCC(=O)N[C@@H](CCCNC(=N)N)C(=O)N[C@@H](Cc1ccccc1)C(=O)N[C@@H](Cc1ccc(O)cc1)C(=O)N[C@H](C(=O)N[C@@H](CCC(N)=O)C(=O)N[C@@H](CCSC)C(=O)N[C@@H](CS)C(=O)N[C@H](C(=O)N[C@@H](CCC(=O)O)C(=O)N[C@@H](CC(C)C)C(=O)N[C@@H](CCCCN)C(=O)N[C@@H](CC(C)C)C(=O)N[C@@H](CO)C(=O)O)[C@@H](C)O)[C@@H](C)CC [Flu.NP.39] | – | 990 | – | 130 | – | – | 78 | 64 nM and 43 nM | 880 | 640 | – | – | Human influenza epitope-specific immune response, donor 3501 [12]: Positive (Donors were considered positive for a peptide if the number of spots was over 3 times background as determined by responses to irrelevant peptides (non influenza)); IC50 [8, 16]: 64 nM
4 | CC[C@H](C)[C@H](NC(=O)[C@H](CCC(=O)O)NC(=O)CNC(=O)[C@@H](N)C(C)C)C(=O)N[C@@H](CO)C(=O)N1CCC[C@H]1C(=O)N[C@@H](CC(C)C)C(=O)N1CCC[C@H]1C(=O)N[C@@H](CO)C(=O)N[C@@H](CC(C)C)C(=O)N1CCC[C@H]1C(=O)NCC(=O)N[C@@H](Cc1c[nH]cn1)C(=O)N[C@H](C(=O)N[C@@H](CC(=O)O)C(=O)O)[C@@H](C)O [Flu.NS1.160] | > 10000 | – | – | – | 8.5 | 38 nM and 28 nM | – | 14 nM and 12 nM | 90 | > 10000 | 31 nM and 16 nM | > 10000 | IC50 ([11]; Table 4): 31 nM; IC50 ([6]; Table 4): 38 nM; IC50 [8, 16]: 14 nM
5 | CC[C@H](C)[C@H](NC(=O)[C@H](CC(C)C)NC(=O)[C@@H](NC(=O)[C@@H](N)CC(N)=O)C(C)C)C(=O)NCC(=O)N[C@@H](CCC(N)=O)C(=O)NCC(=O)N[C@@H](CC(=O)O)C(=O)N[C@H](C(=O)N[C@H](C(=O)N[C@@H](CC(C)C)C(=O)N[C@H](C(=O)N[C@@H](CCSC)C(=O)N[C@@H](CCCCN)C(=O)N[C@@H](CCCNC(=N)N)C(=O)O)C(C)C)C(C)C)C(C)C [Flu.PB2.726] | – | – | – | 1080 | – | – | 4200 | – | – | – | – | – | –
6 | CSCC[C@H](NC(=O)[C@@H](NC(=O)[C@H](CCCNC(=N)N)NC(=O)[C@@H](N)CC(=O)O)C(C)C)C(=O)N[C@H](C(=O)N[C@@H](CO)C(=O)N1CCC[C@H]1C(=O)N[C@@H](CC(C)C)C(=O)N[C@@H](C)C(=O)N[C@H](C(=O)N[C@H](C(=O)N[C@@H](Cc1c[nH]c2ccccc12)C(=O)N[C@@H](Cc1c[nH]c2ccccc12)C(=O)N[C@@H](CC(N)=O)C(=O)N[C@@H](CCCNC(=N)N)C(=O)O)[C@@H](C)O)C(C)C)C(C)C [Flu.PB2.90] | – | – | 16000 | 3550 | – | – | – | 93 nM | – | – | – | – | –
7 | CC[C@H](C)[C@H](NC(=O)CNC(=O)[C@@H]1CCCN1C(=O)[C@H](Cc1c[nH]cn1)NC(=O)[C@H](CO)NC(=O)[C@H](CCC(=O)O)NC(=O)[C@H](CCC(=O)O)NC(=O)[C@H](CC(C)C)NC(=O)[C@H](Cc1ccccc1)NC(=O)[C@H](C)NC(=O)[C@H](CCSC)NC(=O)[C@H](C)N)C(=O)N[C@@H](Cc1ccccc1)C(=O)N[C@@H](CCC(=O)O)C(=O)N[C@@H](CC(N)=O)C(=O)O [Flu.PB1.94] | 84 | – | – | – | – | – | – | – | – | – | – | 400 | –
8 | CC[C@H](C)[C@H](NC(=O)CNC(=O)[C@@H](NC(=O)[C@@H]1CCCN1C(=O)[C@H](CCCNC(=N)N)NC(=O)[C@@H](N)CCCNC(=N)N)C(C)C)C(=O)N[C@@H](CO)C(=O)N[C@@H](CO)C(=O)N[C@@H](CCSC)C(=O)N[C@H](C(=O)N[C@@H](CCC(=O)O)C(=O)N[C@@H](C)C(=O)N[C@@H](CCSC)C(=O)N[C@H](C(=O)N[C@@H](CO)C(=O)O)C(C)C)C(C)C [Flu.PB1.709] | 1800 | – | – | – | – | 240 nM | – | – | – | – | – | – | –
9 | CC[C@H](C)[C@H](NC(=O)CNC(=O)[C@@H](NC(=O)[C@@H](NC(=O)[C@H](CO)NC(=O)[C@H](C)NC(=O)[C@H](C)NC(=O)[C@@H](NC(=O)[C@@H](NC(=O)[C@H](CC(C)C)NC(=O)[C@@H]1CCCN1C(=O)[C@@H](N)CC(=O)O)C(C)C)C(C)C)[C@@H](C)CC)[C@@H](C)CC)C(=O)N[C@@H](CC(C)C)C(=O)N[C@@H](Cc1c[nH]cn1)C(=O)N[C@@H](CC(C)C)C(=O)O [Flu.M2.27] | – | – | 630 | – | – | 2200 nM | – | – | 1800 | – | 92 nM | – | IC50 ([1]; read-out: IC50 nM to purified HLA DRB1*0701): 1300 nM; IC50 ([5]; read-out: IC50 nM to purified HLA DRB1*0404): 23 nM; IC50 ([8]; read-out: IC50 nM to purified HLA DRB1*0101): 78 nM
10 | CSCC[C@H](NC(=O)[C@H](CO)NC(=O)[C@H](CCCCN)NC(=O)[C@H](C)N)C(=O)N[C@@H](CCC(=O)O)C(=O)N[C@@H](Cc1ccc(O)cc1)C(=O)N[C@@H](CC(=O)O)C(=O)N[C@@H](C)C(=O)N[C@H](C(=O)N[C@@H](C)C(=O)N[C@H](C(=O)N[C@H](C(=O)N[C@@H](Cc1c[nH]cn1)C(=O)N[C@@H](CO)C(=O)N[C@@H](Cc1c[nH]c2ccccc12)C(=O)O)[C@@H](C)O)[C@@H](C)O)C(C)C [Flu.PB1.655] | 292 | 6340 | 626 | – | 646 | 1990 nM | 3530 | 202 nM | 6620 | 2180 | 53 nM | 909 | –
